Results published in US20110288152A1, “PSMA BINDING LIGAND-LINKER CONJUGATES AND METHODS FOR USING” (Purdue Research Foundation, priority 2008, published 2011).
Starred links: 1 amine or outer side, 2 acyl side, 3 side chain; linkers in the order of their positions; H or OH if unused. Non-standard residues stand in square brackets, D forms with d. Residues, ends and D or L forms follow the SMILES beside them. Groups on a side chain read outwards from the residue. γGlu = O=C(O)[C@H](CCC(=O)[*:2])N[*:1]; Dap = NC[C@H](N)C(=O)O; Aoc = NCCCCCCCC(=O)O; CO = O=C([*:1])[*:2]

What was measured:
[1] = molecular target: T1, PSMA on LNCaP cells (Homo sapiens, UniProt Q04609); assay: Spacer-dependent binding studies of DUPA-Linker-99mTc compounds on LNCaP cells; conditions: 37° C., 1 hour, 0 nM-1280 nM, read-out: Kd from cell bound radioactivity versus concentration of DUPA-Linker-99Tc imaging agents
T1 construct: LNCaP cells (a human prostate cancer cell line over-expressing PSMA); host or cells: LNCaP
Protocol: Cells were then incubated with increasing concentrations of SK60-99 mTc (zero atom spacer), SK62-99 mTc (7 atom spacer), SK28-99 mTc (14 atom spacer), SK38-99 mTc (16 atom spacer) and SK57-99 mTc (24 atom spacer) from 0 nM-1280 nM (triplicates for each concentration) in a 5%-CO2 atmosphere at 37° C. for 1 hour. Also, in separate plates, cells was incubated with 50 uM PMPA in a 5%-CO2 atmosphere at 37° C. for 30 minutes and then incubated with increasing concentration of SK60-99 mTc (zero atom spacer), SK62-99 mTc (7 atom spacer), SK28-99 mTc (14 atom spacer), SK38-99 mTc (16 atom spacer) and SK57-99 mTc (24 atom spacer) from 0 nM-1280 nM (triplicates for each concentration) in a 5%-CO2 atmosphere at 37° C. for 1 hour (competition studies; data not shown). […] The plot of cell bound radioactivity verses concentration of the radiolabeled compound was used to calculate the Kd value. The plot of % saturation verses concentration of the radiolabeled compound as well as the plot for Kd verses spacer length are shown (FIGS. 4 and 5).

[2] = molecular target: T1, PSMA on LNCaP cells; assay: In vitro binding studies using LNCaP cells and SK28-99mTc, with and without excess PMPA; conditions: 37° C., 1 hour, 0 nM-450 nM, read-out: Kd from cell bound radioactivity versus concentration
Protocol: Cells of one 24-well plate were incubated with increasing concentrations of SK28-99 mTc from 0 nM-450 nM (triplicates for each concentration) in a 5%-CO2 atmosphere at 37° C. for 1 hour. Cells of the second 24-well plate were incubated with 50 uM PMPA in a 5%-CO2 atmosphere at 37° C. for 30 minutes, then incubated with increasing concentrations of SK28-99 mTc from 0 nM-450 nM (triplicates for each concentration) in a 5%-CO2 atmosphere at 37° C. for 1 hour (competition study). […] The competition study was used to determine the binding specificity of the ligand (DUPA) to the PSMA (FIG. 1).
LNCaP cells (150,000 cells/well) were seeded onto 24-well Falcon plates and allowed to form confluent monolayers over 48 h. Spent medium in each well was replaced with fresh medium (0.5 mL) containing increasing concentrations of DUPA-99 mTc in the presence (▴) or absence (▪) of excess PMPA. After incubating for 1 h at 37° C., cells were rinsed with culture medium (2×1.0 mL) and tris buffer (1×1.0 mL) to remove any unbound radioactivity. After suspending cells in tris buffer (0.5 mL), cell bound radioactivity was counted using a γ-counter (Packard, Packard Instrument Company). The dissociation constant (KD) was calculated using a plot of cell bound radioactivity versus the concentration of the radiotracer using nonlinear regression in GraphPad Prism 4. Error bars represent 1 standard deviation (n=3). […]

[3] = molecular target: T1, PSMA on LNCaP cells; assay: Quantification of PSMA molecules on LNCaP cells (cell bound radioactivity at saturation); assay type: cell-based; conditions: for cell bound radioactivity at the saturation point: 1 hour
Protocol: Cells were then incubated with increasing concentrations of SK28-99 mTc from 0 nM-450 nM (triplicates for each concentration) in a 5%-CO2 atmosphere at 4° C. or at 37° C. for 1 hour. […] The radioactivity of a 30 nM sample of SK28-99 mTc (20 uL) was counted. At 4° C. (to prevent endocytosis of PSMA), the number of moles in the 30 nM sample=30 nM×20 uL=(30×10-9 mol/L)×(20×10-6 L)=6×10-13 mol. The number of atoms in the 30 nM sample=(6×10-13 mol)×(6.023×1023 atom/mol)=3.6×1011 atom. The radio count of 20 uL of the 30 nM sample=20477 cpm (cpm/atom=3.6×1011/20477=1.76×107). The cell bound radioactivity at the saturation point at 4° C.=12 000 cpm. The number of atoms at the saturation point=(1.76×107 atom)×(12 000 cpm). The number of cells/well=245,000.
The cell bound radioactivity at the saturation point at 37° C.=33,000 cpm (approximately three fold higher than at 4° C.).

[4] = molecular target: PSMA (Homo sapiens, UniProt Q04609); conditions: urea PSMA ligands of formula drawing 51, R^1 varied; cited from earlier work
Chain of PSMA (Q04609 whole entry, species assumed): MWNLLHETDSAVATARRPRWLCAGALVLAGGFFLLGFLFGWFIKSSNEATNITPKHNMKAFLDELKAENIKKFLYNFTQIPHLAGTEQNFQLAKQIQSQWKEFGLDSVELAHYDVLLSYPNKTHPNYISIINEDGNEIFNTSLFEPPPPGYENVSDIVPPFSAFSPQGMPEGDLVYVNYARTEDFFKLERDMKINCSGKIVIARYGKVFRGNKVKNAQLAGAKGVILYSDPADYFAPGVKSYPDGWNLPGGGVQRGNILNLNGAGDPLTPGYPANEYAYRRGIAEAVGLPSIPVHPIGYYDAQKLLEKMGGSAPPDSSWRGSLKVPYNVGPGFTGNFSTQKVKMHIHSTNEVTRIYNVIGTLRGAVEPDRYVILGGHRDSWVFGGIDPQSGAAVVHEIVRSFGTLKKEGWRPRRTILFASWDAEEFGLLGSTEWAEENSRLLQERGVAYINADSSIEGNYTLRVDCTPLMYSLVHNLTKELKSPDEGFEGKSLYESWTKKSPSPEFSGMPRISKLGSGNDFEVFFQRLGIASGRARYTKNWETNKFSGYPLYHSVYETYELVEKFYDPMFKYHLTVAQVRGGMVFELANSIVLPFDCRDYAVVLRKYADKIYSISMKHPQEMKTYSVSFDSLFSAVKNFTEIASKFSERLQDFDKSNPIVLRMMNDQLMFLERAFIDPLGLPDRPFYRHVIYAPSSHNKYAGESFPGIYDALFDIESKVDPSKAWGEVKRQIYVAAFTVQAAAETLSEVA

T1 sequence (Q04609 whole entry): as the sequence (Q04609 whole entry, species assumed) above

Row | SMILES | Kd [1] [nM] | Ki [4] [nM] | further results
1 | N[C@@H](CNC(=O)CC[C@H](NC(=O)N[C@@H](CCC(=O)O)C(=O)O)C(=O)O)C(=O)N[C@@H](CC(=O)O)C(=O)N[C@@H](CS)C(=O)O [0-atom linker] (H-[Dap]([γGlu-CO-Glu])-Asp-Cys-OH) | 171 | – | –
2 | N[C@@H](CNC(=O)[C@H](Cc1ccccc1)NC(=O)CC[C@H](NC(=O)CC[C@H](NC(=O)N[C@@H](CCC(=O)O)C(=O)O)C(=O)O)C(=O)O)C(=O)N[C@@H](CC(=O)O)C(=O)N[C@@H](CS)C(=O)O [7-atom linker] (H-[Dap]([Phe-γGlu-γGlu-CO-Glu])-Asp-Cys-OH) | 68 | – | –
3 | N[C@@H](CNC(=O)CC[C@H](NC(=O)[C@H](Cc1ccccc1)NC(=O)CCCCCCCNC(=O)CC[C@H](NC(=O)N[C@@H](CCC(=O)O)C(=O)O)C(=O)O)C(=O)O)C(=O)N[C@@H](CC(=O)O)C(=O)N[C@@H](CS)C(=O)O [16-atom linker] (H-[Dap]([γGlu-Phe-Aoc-γGlu-CO-Glu])-Asp-Cys-OH) | 40 | – | –
4 | N[C@@H](CNC(=O)[C@H](Cc1ccccc1)NC(=O)[C@H](Cc1ccccc1)NC(=O)CCCCCCCNC(=O)CC[C@H](NC(=O)N[C@@H](CCC(=O)O)C(=O)O)C(=O)O)C(=O)N[C@@H](CC(=O)O)C(=O)N[C@@H](CS)C(=O)O [SK28-^99mTc, metal not drawn] (H-[Dap]([Phe-Phe-Aoc-γGlu-CO-Glu])-Asp-Cys-OH) | 15 | – | Kd [2]: 18.1 nM; cell bound radioactivity at saturation, 37° C. relative to 4° C. [3]: approximately three; cell bound radioactivity at the saturation point ([3]; 4° C.): 12 000 cpm; cell bound radioactivity at the saturation point ([3]; 37° C.): 33,000 cpm
5 | O=C(O)CCC(NC(=O)NC(CS)C(=O)O)C(=O)O (stereo not shown) [drawing 52 (R = H)] | – | 6.9 | –
6 | CC(C)(C)SCC(NC(=O)NC(CCC(=O)O)C(=O)O)C(=O)O (stereo not shown) [drawing 52 (R = tert-Bu)] | – | 29 | –
